Results on 3 compounds are retold here after ChEMBL document CHEMBL1128616, “A pair of new apotirucallane triterpenes, meliavolkensins A and B, from Melia volkensii (Meliaceae)” (1995).

The term LC50 denotes the concentration lethal to half of the exposed cells or organisms. Lower therefore signals greater toxicity.

Type in all cases: functional
One test has as its system Artemia. Description: Compound was tested for its cytotoxic activity by brine shrimp lethality test.
Another test concerns HT-29. Description: Compound was tested for its cytotoxic activity in MTT assay against HT-29 cell line (human colon adenocarcinoma). Conditions: read-out: ED50 (the source's name). On the technique in general: Tetrazolium assays rely on reduction of a dye to a coloured formazan, in cell work by metabolically active cells.
A further test concerns MCF9. Briefly: Compound was tested for its cytotoxic activity in MTT assay against MCF-9 cell line (human breast carcinoma). The conditions noted are these: read-out: ED50 (the source's name).
Another test concerns A549. Briefly: Compound was tested for its cytotoxic activity in MTT assay against A-549 cell line (human lung carcinoma). The conditions noted are these: read-out: ED50 (the source's name).

SMILES strings stand for the structures. Converted amounts (≈) assume the structure as drawn.

Compound `CO[C@@]1(C(C)(C)O)CC[C@@H]([C@@H]2CC=C3[C@@]4(C)C(CC[C@]32C)[C@]2(C)C(C[C@H]4OC(C)=O)C(C)(C)C(OC(=O)c3ccccc3)C[C@@H]2OC(C)=O)CO1` (stereo partly specified) had an LC50 in the test on Artemia of 89.3 µg/mL (≈ 126 µM). For the same compound, the EC50 with HT-29 came to 0.25 µg/mL (≈ 0.353 µM); in the test with MCF9, 2.02 µg/mL (≈ 2.85 µM); with A549, 10.6 µg/mL (≈ 15 µM).

The compound `CO[C@]1(C(C)(C)O)CC[C@@H]([C@@H]2CC=C3[C@@]4(C)C(CC[C@]32C)[C@]2(C)C(C[C@H]4OC(C)=O)C(C)(C)C(OC(=O)c3ccccc3)C[C@@H]2OC(C)=O)CO1` (stereo partly specified) returned an LC50 with Artemia of 107 µg/mL (≈ 150 µM). Also, the EC50 in the test with HT-29 was 0.49 µg/mL (≈ 0.691 µM); with MCF9, 3.06 µg/mL (≈ 4.32 µM); in the test with A549, 13.3 µg/mL (≈ 18.7 µM).

As for `COc1cccc2c1C(=O)c1c(O)c3c(c(O)c1C2=O)C[C@@](O)(C(=O)CO)C[C@@H]3O[C@H]1C[C@H](N)[C@H](O)[C@H](C)O1` [DOXORUBICIN], the results for the EC50 in the test with HT-29, in the test with MCF9 and with A549 were 0.0261 µg/mL (≈ 0.048 µM), 0.0673 µg/mL (≈ 0.124 µM) and 0.00844 µg/mL (≈ 0.0155 µM), respectively.
